The values below come from paper PMC6039321 (International Journal for Parasitology: Drugs and Drug …, 2018).

One test deals with P. falciparum (K1). The class given is cell-based, Plasmodium falciparum.
Another test deals with HEK 293 cells. The class given is cell-based, H. sapiens. The note with it: for IC50: read-out: OCA HEK 293 IC50, Table 4.
For the next test, the target named is cytbc1 (Plasmodium falciparum, UniProt Q02768). In words: Enzymatic cytbc1 activity. The note with it: for % Inhibition Cytbc1 biochemical assay, 5 μM: compound at 5 μM, P. falciparum mitochondria, atovaquone 100% inhibition control. The class given is biochemical, P. falciparum K1 strain.
Sequence of cytbc1 (Q02768 whole entry): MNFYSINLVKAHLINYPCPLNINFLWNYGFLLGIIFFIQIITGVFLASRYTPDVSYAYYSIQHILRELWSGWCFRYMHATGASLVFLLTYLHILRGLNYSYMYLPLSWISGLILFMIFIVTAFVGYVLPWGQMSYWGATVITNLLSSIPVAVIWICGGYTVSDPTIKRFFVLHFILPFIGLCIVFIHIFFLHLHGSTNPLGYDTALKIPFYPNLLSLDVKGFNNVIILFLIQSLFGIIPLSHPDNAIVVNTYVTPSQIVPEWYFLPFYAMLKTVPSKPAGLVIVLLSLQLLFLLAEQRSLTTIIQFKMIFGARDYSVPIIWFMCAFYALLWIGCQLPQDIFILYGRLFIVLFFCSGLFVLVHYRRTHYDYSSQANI
For a further test, the system named is P. yoelii (17XL). The test is described as follows: microbe, parasite or virus in culture. The class given is cell-based, Plasmodium yoelii. The note with it: for IC50: read-out: OCA P. yoelii IC50.

Where two headings read alike, the source gives them in different places.

For `C/C=C(C)/C=C/C=C/[C@H](OC)[C@@H](C)[C@@H](OC)[C@@H](C)CCc1oc2c(O)c(OC)cc(OC)c2c(=O)c1C` [Stigmatellin], the “Selectivity (P. falciparum vs H. sapiens)” value in the test with P. falciparum (K1) (ratio of OCA IC50 HEK 293 / P. falciparum K1) was 0.015.
As to `C=C(C)[C@H]1Cc2c(ccc3c2O[C@@H]2COc4cc(OC)c(OC)cc4[C@@H]2C3=O)O1` [Rotenone, reference compound], the “inhibition of oxygen consumption signal in HEK 293 cells” value in the test on HEK 293 cells (rotenone at 2.5 μM, 6.5·10^5 HEK 293 cells (Fig. 2A)) is listed as “completely inhibited”.
One may read the IC50 as the concentration needed to halve the response being measured. Regarding `Cc1cccc(-c2nn(-c3ccccc3)cc2C(=O)Nc2nnc(C)o2)c1` [TCMDC-125039], the IC50 is greater than 10 µM with HEK 293 cells and 1.1 ± 0.131 µM in the test with P. yoelii (17XL) (Table 4). Besides, on cytbc1, the “% Inhibition Cytbc1 biochemical assay, 5 μM” value is listed as 77.11 ± 12.20%.
As to `Cc1cccc2nc(-c3ccc(-c4ccc(CN5CC(C)OC(C)C5)cc4)cc3)[nH]c12.O=C(O)C(F)(F)F` (stereo not shown) [TCMDC-133823], the results for the IC50 in the test with HEK 293 cells and in the test on P. yoelii (17XL) (Table 4) were greater than 10 µM and 2.2 ± 1.95 µM, respectively. Moreover, the “% Inhibition Cytbc1 biochemical assay, 5 μM” value at cytbc1 was determined as 89.93 ± 9.67%.
As for `Clc1cccc(Nc2ccc3c(N4CCCCC4)ncnc3n2)c1` [TCMDC-134937], the IC50 in the test with HEK 293 cells was greater than 10 µM; in the test on P. yoelii (17XL) (Table 4), 1.32 ± 0.86 µM. For the same compound, the “% Inhibition Cytbc1 biochemical assay, 5 μM” value at cytbc1 turned out to be 50.34 ± 6.78%.
Regarding `COCCN(C)c1ccc(C(=O)Nc2ccccc2)cc1NS(=O)(=O)Cc1ccccc1.O=C(O)C(F)(F)F` [TCMDC-134575], the IC50 is greater than 10 µM with HEK 293 cells and 0.514 ± 0.225 µM with P. yoelii (17XL) (Table 4). For the same compound, the “% Inhibition Cytbc1 biochemical assay, 5 μM” value at cytbc1 is reported as 91.48 ± 7.57%.
With `c1ccc(CCNc2ncnc3c2[nH]c2ccccc23)cc1` [TCMDC-124578], the IC50 in the test with HEK 293 cells was found to be 7.52 ± 0.5 µM; with P. yoelii (17XL) (Table 4), 0.292 ± 0.249 µM. The “% Inhibition Cytbc1 biochemical assay, 5 μM” value at cytbc1 is given as 100.30 ± 2.14%.
As for `COc1ccc(NS(=O)(=O)c2cc(NC(=O)Cn3ccccc3=O)ccc2N2CCCCC2)cc1` [TCMDC-124874], the results for the IC50 with HEK 293 cells and in the test on P. yoelii (17XL) (Table 4) were greater than 10 µM and 0.76 ± 0.109 µM, respectively. Further, the “% Inhibition Cytbc1 biochemical assay, 5 μM” value at cytbc1 amounted to 59.97 ± 8.70%.
Consider `O=C(Nc1ccccc1O)c1ccc(S(=O)(=O)c2ccc(Cl)cc2)cc1` [TCMDC-123689], for which the IC50 with HEK 293 cells is greater than 10 µM; in the test on P. yoelii (17XL) (Table 4), 8.19 ± 1.26 µM. Also, the “% Inhibition Cytbc1 biochemical assay, 5 μM” value on cytbc1 was 99.84 ± 2.22%.
One may read the inhibition as the relative decrease from the control value, in per cent. On to `O=C1C(O)=C([C@H]2CC[C@H](c3ccc(Cl)cc3)CC2)C(=O)c2ccccc21` [Atovaquone, reference compound], for which the inhibition at 0.5 µM at cytbc1 (read-out: % Inhibition Cytbc1 biochemical assay, 0.5 μM) was 105 ± 8.26%. For the same compound, the inhibition at 5 µM at cytbc1 (read-out: % Inhibition Cytbc1 biochemical assay, 5 μM) was determined as 101 ± 9.82%. Besides, in the test with P. yoelii (17XL) (1.25 μM atovaquone, 2·10^7 P. yoelii cells (Fig. 2B)), the “inhibition of oxygen consumption signal in Plasmodium cells” value is “completely inhibited”. In addition, in the test with P. yoelii (17XL) (Plasmodium yoelii), the IC50 turned out to be 0.005 ± 0.001 µM.
Consider `N#CC(C#N)=NNc1ccc(OC(F)(F)F)cc1` [FCCP, carbonyl cyanide 4-(trifluoromethoxy)phenylhydrazone], for which the “Selectivity (P. falciparum vs H. sapiens)” value with P. falciparum (K1) is 1.93.
